Experimental findings from ChEMBL document CHEMBL1201862, “PubChem BioAssay data set” (2004) are described below.

One assay deals with T1, Protein RecA (Mycobacterium tuberculosis, UniProt P9WHJ3).
T1 sequence (P9WHJ3 whole entry): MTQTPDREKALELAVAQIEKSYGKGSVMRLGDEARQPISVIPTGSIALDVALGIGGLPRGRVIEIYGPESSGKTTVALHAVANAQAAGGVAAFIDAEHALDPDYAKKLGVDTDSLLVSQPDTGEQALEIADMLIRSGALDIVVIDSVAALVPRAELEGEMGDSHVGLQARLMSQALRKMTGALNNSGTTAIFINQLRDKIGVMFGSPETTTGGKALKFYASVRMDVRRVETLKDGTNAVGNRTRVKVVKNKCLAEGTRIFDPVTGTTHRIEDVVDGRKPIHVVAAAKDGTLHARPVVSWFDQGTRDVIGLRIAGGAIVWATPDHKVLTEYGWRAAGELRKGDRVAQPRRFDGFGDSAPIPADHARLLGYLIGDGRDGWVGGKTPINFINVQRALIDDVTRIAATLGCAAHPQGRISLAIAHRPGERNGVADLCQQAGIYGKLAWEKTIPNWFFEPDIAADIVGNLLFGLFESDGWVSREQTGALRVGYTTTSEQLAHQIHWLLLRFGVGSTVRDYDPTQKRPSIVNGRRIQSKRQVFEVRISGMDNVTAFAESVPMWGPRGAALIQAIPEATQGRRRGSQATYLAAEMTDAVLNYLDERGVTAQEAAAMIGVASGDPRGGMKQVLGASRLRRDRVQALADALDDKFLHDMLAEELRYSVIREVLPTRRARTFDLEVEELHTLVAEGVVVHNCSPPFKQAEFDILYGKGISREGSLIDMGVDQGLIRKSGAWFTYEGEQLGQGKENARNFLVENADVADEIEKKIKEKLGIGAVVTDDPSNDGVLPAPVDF
The experiment in a line: Fluorescence Cell-Free Homogeneous Dose Retest to Identify Inhibitors of RecA-Intein Splicing Activity. [Related pubchem assays (depositor defined):AID2097, AID2223, AID489010, AID492950]. It counts as functional.

Assay [1] concerns the target T2, Replicative DNA helicase DnaB (Mycobacterium tuberculosis, UniProt P9WMR3).
T2 sequence (P9WMR3 whole entry): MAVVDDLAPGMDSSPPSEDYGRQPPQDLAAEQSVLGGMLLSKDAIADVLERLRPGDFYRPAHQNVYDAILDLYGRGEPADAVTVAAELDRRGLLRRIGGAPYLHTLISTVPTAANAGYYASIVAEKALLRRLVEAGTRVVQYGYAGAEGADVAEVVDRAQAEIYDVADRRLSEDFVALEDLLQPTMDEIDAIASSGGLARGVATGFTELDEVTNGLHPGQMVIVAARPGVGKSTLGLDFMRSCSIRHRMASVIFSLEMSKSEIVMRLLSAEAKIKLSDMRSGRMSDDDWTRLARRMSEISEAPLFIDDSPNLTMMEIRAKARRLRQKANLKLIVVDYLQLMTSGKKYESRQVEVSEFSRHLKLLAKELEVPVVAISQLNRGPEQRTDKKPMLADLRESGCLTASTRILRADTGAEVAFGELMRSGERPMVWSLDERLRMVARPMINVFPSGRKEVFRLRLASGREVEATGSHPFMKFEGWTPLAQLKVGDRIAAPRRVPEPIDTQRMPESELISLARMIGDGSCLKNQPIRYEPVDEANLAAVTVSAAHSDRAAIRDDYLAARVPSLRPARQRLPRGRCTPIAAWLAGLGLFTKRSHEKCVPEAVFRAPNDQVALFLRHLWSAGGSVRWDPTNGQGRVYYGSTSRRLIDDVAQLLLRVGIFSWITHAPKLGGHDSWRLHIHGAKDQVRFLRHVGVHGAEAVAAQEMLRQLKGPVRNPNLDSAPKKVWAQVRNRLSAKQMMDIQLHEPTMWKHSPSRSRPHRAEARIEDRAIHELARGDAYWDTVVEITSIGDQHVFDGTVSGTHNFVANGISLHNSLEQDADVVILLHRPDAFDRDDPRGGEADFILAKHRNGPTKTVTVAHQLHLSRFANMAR
The experiment in a line: DnaB intein splicing inhibitors, dose response, biochemical, cell-free fluorescence (AID 449749). It counts as functional.

The next assay concerns H9c2. The experiment in a line: cells. It counts as functional, cell-based. As to conditions: Rattus norvegicus, H9c2, Myocardium.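 Also: confirmatory concentration-response retest of ultra-high-throughput screening hits for modulation of myocardial damage; cell death induced by hydrogen peroxide oxidative stress; compound pretreatment for 60 min then peroxide exposure for 2 h; potency is for protecting the cells against peroxide damage rather than for killing them.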
A further assay deals with Vero. The experiment in a line: cells. It counts as functional. As to conditions: Chlorocebus sabaeus.
Another assay is described as follows: cells. The format is functional.
Assay [2] has as its target T3, Rac GTPase-activating protein 1 (Homo sapiens, UniProt Q9H0H5).
T3 sequence (Q9H0H5 whole entry): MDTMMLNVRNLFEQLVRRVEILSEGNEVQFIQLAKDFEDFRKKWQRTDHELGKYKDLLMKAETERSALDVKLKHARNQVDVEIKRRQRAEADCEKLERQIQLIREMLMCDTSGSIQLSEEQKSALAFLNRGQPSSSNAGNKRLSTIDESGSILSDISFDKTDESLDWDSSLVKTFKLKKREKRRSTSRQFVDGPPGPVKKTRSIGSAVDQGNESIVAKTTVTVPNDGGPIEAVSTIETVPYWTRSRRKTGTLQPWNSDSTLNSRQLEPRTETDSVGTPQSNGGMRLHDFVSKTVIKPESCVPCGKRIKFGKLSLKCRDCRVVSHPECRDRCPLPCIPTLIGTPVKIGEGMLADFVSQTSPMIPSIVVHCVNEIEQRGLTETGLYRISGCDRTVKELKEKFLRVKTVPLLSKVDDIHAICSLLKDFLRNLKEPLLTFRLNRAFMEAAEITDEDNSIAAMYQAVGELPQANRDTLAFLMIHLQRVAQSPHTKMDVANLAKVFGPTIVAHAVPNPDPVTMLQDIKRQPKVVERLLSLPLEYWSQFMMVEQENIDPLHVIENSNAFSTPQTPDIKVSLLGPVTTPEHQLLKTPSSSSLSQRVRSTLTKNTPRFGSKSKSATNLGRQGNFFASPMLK
The experiment in a line: MgcRacGAP GTPase-activating activity inhibitors, confirmation, biochemical, ADP Hunter fluorescence, primary and confirmatory (AID 624330). It counts as functional.

In assay [3] the target is T4, Heat shock factor protein 1 (Mus musculus, UniProt P38532).
T4 sequence (P38532 whole entry): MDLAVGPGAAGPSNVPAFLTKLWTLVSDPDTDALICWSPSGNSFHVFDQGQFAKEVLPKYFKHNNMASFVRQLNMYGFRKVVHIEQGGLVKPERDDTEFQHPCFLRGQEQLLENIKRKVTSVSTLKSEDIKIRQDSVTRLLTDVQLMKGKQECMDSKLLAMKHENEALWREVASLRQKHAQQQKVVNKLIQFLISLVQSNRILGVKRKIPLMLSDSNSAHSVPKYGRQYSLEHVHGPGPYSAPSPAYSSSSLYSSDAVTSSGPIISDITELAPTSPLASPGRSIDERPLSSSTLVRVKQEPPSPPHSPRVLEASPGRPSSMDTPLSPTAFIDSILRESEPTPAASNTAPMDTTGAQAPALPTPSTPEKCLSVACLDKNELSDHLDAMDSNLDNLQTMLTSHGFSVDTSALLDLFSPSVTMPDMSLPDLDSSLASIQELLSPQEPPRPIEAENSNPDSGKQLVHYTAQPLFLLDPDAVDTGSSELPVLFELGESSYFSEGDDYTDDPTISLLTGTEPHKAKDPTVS
The experiment in a line: HSF1 potentiators in luciferase reporter cells, confirmation, cell-based, NIH3T3, luminescence, dose retest (AID 435004).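 Also: stress induced by proteasome inhibitor MG132 added 30 min after compound; luciferase reporter driven by HSF1 response element in NIH3T3 cells; actives raise luminescence as potentiators of the MG132 stress response.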 The format is functional.

A short description of assay [4]: HEp-2 cell cytotoxicity, dose response, cytotoxicity control for RSV inhibitor project, HTS (AID 2410). It counts as functional. Particulars: human respiratory syncytial virus.
Assay [5] relates to Streptococcus sp. 'group A'. The experiment in a line: growth inhibition of control SK(-) GAS strain, dose response, counter-screen for streptokinase expression inhibitor project, luminescence, kanamycin, BacTiterGlo, confirmation (AID 1900). It counts as functional, organism-based.
In the next assay the test system is Streptococcus. The experiment in a line: Group A Streptococcus viability loss, dose response, counter-screen for streptokinase expression inhibitor project, luminescence, BacTiterGlo (AID 1915).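 Also: potency for reduction of bacterial viability or growth.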 The format is functional, organism-based.

Active and inactive are the calls of the source.

In the case of `O=C(CSc1ncnc2c1nnn2Cc1ccc(F)cc1)NCC1CCCO1` (stereo not given), the concentration giving a half-maximal response (EC50) at Protein RecA is 10.2 µM (active). The AC50 in [1] was 14.3 µM (active). Take `COC(=O)C1=C(C)N(CCc2ccc(OC)cc2)C(=O)C1`: in the assay with H9c2, the IC50 was > 79 µM (inactive). On to `O=C1/C(=C/c2ccccc2F)SC(=S)N1CCC(=O)N1CCCCC1CCO` (stereo not given), for which the CC50 in the assay on Vero is 25 µM (active).

`CCCc1cc(C(=O)Nc2ccccc2SC)no1`: in “cells”, the IC50 was 10.5 µM (active). Consider `COC(=O)c1ccc(N)c(NC=C2C(=O)CC(C)(C)CC2=O)c1`, for which the IC50 in the assay with H9c2 is 6.51 µM (active).

With `CCOC(=O)C1CCN(Cc2ccc(-c3ccccc3)cc2)CC1`, the IC50 in assay [2] was 151 µM (active). For `COCCN(Cc1nc(O)c2ccccc2n1)C(=O)COc1ccccc1-c1ccccc1`, the CC50 in the assay on Vero is > 25 µM (active).

Take `CCC1(C)Cc2c(sc3nc(NN)n(C)c(=O)c23)CO1` (stereo not given): in the assay with H9c2, the IC50 was > 79 µM (inactive). Regarding `CN(C)/N=C/c1ccc(N2CCOCC2)cc1`, in assay [2], the IC50 is 51.2 µM (active). Take `O=C(/C=C/NNC(=O)c1ccccc1)c1ccc(Br)cc1`: the IC50 in the assay with H9c2 is 12.4 µM (active). The EC50 in assay [3] is 39.1 µM (active).

For `COc1cccc(Nc2c([N+](=O)[O-])cncc2[N+](=O)[O-])c1`, the half-maximal effective concentration (EC50) on Protein RecA is 8.86 µM (active). Moreover, the AC50 in assay [1] is 12.9 µM (active). On the same counts, the results for `COc1cccc(N2CC(C(=O)Nc3nnc(SCC(=O)c4ccccc4)s3)CC2=O)c1` (stereo not given) are > 380 µM (inactive) and 181 µM (active). Take `Cc1noc(C)c1CSCC(=O)Oc1ccc(N(C)S(=O)(=O)c2ccccc2)cc1`: the EC50 at Protein RecA was 22.3 µM (active). In addition, in assay [1], the AC50 is 4.1 µM (active). As for `COc1ccc(OC(=O)COc2cc(C)ccc2C)cc1`, the IC50 in assay [2] was 37.7 µM (active).

Take `O=C1CCCC2=C1C(c1ccc(Cl)cc1)n1c(s/c(=C\c3ccc4ccncc4c3)c1=O)=N2` (stereo not given): the CC50 in assay [4] is 31.8 µM (active); in the assay on Vero, > 25 µM (active). In addition, the EC50 in [3] was 146 µM (active). Take `CCCn1c(SC(C(=O)Nc2cccc(OC)c2)c2ccccc2)nc2ccccc2c1=O` (stereo not given): in the assay on H9c2, the IC50 is > 79 µM (inactive). Still for that read-out and setting: in the case of `CCOC(=O)C1CCN(c2cc3c(cc2NC(=O)c2ccc(OC)c(OC)c2)n(C)c(=O)n3C)CC1` it was 26.8 µM (active). Regarding `CCN(CC)S(=O)(=O)c1ccc(C)c(NC(=O)CN2CCN(C)CC2)c1`, in [2], the IC50 was 118 µM (active). Turning to `COc1cccc(COC(=O)c2sc3nc4n(c(=O)c3c2C)CCC4)c1OC`, the EC50 in assay [5] was 1.6 µM (active); with Streptococcus, 8.48 µM (active). Moreover, the IC50 in “cells” was 4.36 µM (active). Take `CCS(=O)(=O)C1=NN2C(=N)/C(=C\c3ccc(OC(=O)c4ccco4)cc3)C(=O)N=C2S1`: the EC50 at Protein RecA is 19.4 µM (active). For the same compound, the AC50 in assay [1] was > 380 µM (inactive). With `CC(=O)Oc1c(-c2ccco2)oc2ccccc2c1=O`, the IC50 in “cells” was 23.2 µM (active). For the compound `Cc1n[nH]c2c1C(c1cnn(C)c1)C(C#N)=C(N)O2` (stereo not given), the EC50 at Protein RecA was 3.67 µM (active). The AC50 in assay [1] was 14.2 µM (active).

Turning to `O=P1(c2ccccc2)Nc2ccccc2N1c1ccccc1` (stereo not given), in assay [2], the IC50 was 28.8 µM (active). Regarding `O=C(NCc1nnc(O)c2ccccc12)C1CC(=O)N(c2ccccc2)C1` (stereo not given), the IC50 in the assay with H9c2 was > 79 µM (inactive). On to `O=C(c1ccco1)N1CCN(Cc2cccc([N+](=O)[O-])c2)CC1`, for which, in assay [2], the IC50 is 127 µM (active). As to `COc1ccc(NC(=O)N(C)C[C@H]2Oc3c(NC(=O)Nc4ccc(C(F)(F)F)cc4)cccc3C(=O)N([C@H](C)CO)C[C@@H]2C)cc1`, the IC50 in the assay with H9c2 was > 79 µM (inactive). As for `CC1(C)CC2(C)OC(=N)C1(C#N)C2(C#N)C#N` (stereo not given), at Protein RecA, the EC50 was 12.3 µM (active). The AC50 in assay [1] is 70.3 µM (active). Consider `O=C(Oc1ccc2c(-c3ccccc3)cc(=O)oc2c1)C1CCCCC1`, for which, in the assay with H9c2, the IC50 was 34.3 µM (inactive). As to `Cc1ccc(NC(=O)CSc2ncnc3ccccc23)cc1S(=O)(=O)N1CCCCCC1`, on Protein RecA, the EC50 is 2.66 µM (active). The AC50 in assay [1] was 20.1 µM (active). In the case of `CCCC(=O)Nc1nc2ccc(NC(=O)c3ccc(Br)o3)cc2s1`, the IC50 in the assay with H9c2 was > 79 µM (inactive). With `O=C(N/N=C\c1ccc(-c2ccccc2[N+](=O)[O-])o1)C1COc2ccccc2O1` (stereo not given), the EC50 on Protein RecA is 12.4 µM (active). Also, the AC50 in [1] is 7.94 µM (active). In the case of `CCOc1cc2c(cc1O)C(=NOC)CC1C2CCC2(C)C(O)CCC12` (stereo not given), the CC50 in the assay on Vero was 5.94 µM (active). As to `O=C(COC(=O)Cc1nnc(O)c2ccccc12)Nc1ncc(Cl)cc1Cl`, in the assay on H9c2, the IC50 was 15.4 µM (active). As for `CC(=O)Nc1ccc(NC(=O)C(C)OC(=O)COc2ccc(Nc3ccccc3)cc2)cc1` (stereo not given), in assay [2], the half-maximal inhibitory concentration (IC50) is 111 µM (active). For the compound `CCN1CCN(CCOc2ccc(Br)cc2C)CC1`, the IC50 in assay [2] is 73.2 µM (active). As to `Cc1ccccc1C1c2[nH]c3ccccc3c2C[C@H]2C(=O)N(c3ccccc3C(=O)NCCCN3CCOCC3)C(=O)N12` (stereo not given in full), the IC50 in the assay with H9c2 is 15.3 µM (active).
